Results reported in patent publication US20070043108A1, “Use of equol for ameliorating or preventing neuropsychiatric and neurodegenerative diseases or disorders” (priority 2002, published 2007).

How the values were obtained:
[1] = Bioavailability of R-equol after oral administration to a healthy adult; format: in vivo, human
Description: 20 mg of pure R-equol was administered orally to a healthy adult after an overnight fast. Blood samples were collected at timed intervals over the next 24 hours and the plasma concentration of equol was determined by isotope dilution gas chromatography-mass spectrometry with selected ion monitoring. Rapid appearance of equol is observed in the plasma with peak concentrations observed after 8 hours. The terminal elimination half-life of R-equol was approximately 8 hours.

[2] = humans; cited from earlier work
[3] = test system: adult Long-Evans male rats; conditions: equol-treated male rats vs control, previously reported in US 2005/0245492; cited from earlier work
[4] = test system: Male Sprague-Dawley rats; test: Example 1: prostate size and hormone secretion in intact male rats injected sc with racemic equol; format: in vivo, rat; conditions: intact males, 0.25 mg/kg sc 1/day for 4 days, vs control
Description: Male Sprague-Dawley rats (400-500 grams) are obtained from Charles Rivers Laboratories (Wilmington, Mass., USA). Rats are caged in pairs and maintained on a 12-hour dark 12-hour light schedule (lights on at 0700 h) with ad libitum access to food and water.
One week following arrival, animals are given subcutaneous (sc) injections (1/day for 4 days) of either dimethylsulfoxide (DMSO) (vehicle control) or racemic equol (0.25 mg/kg). Eighteen hours after the final injection, animals are killed via decapitation and trunk blood and prostate are collected for analysis.

Structure (SMILES) | bioavailability ([1]; 20 mg orally) | time of peak plasma concentrations ([1]; 20 mg orally after overnight fast, healthy adult) | stability of the enantiomer in vivo (racemization, biotransformation) ([1]; equol in plasma by ESI-MS after 20 mg orally) | half-life ([1]; human, plasma, po, 20 mg orally, healthy adult, read-out: terminal elimination half-life (converted)) | proportion circulating in the free or unbound form in plasma [2] | 5α-DHT [3] | prostate weight [3] | serum testosterone, luteinizing hormone (LH) or 17β-estradiol levels [3] | luteinizing hormone (LH) [4] | prostate weight [4]
Oc1ccc([C@@H]2COc3cc(O)ccc3C2)cc1 [R-equol] | extremely bioavailable | 8 h | does not undergo any racemization or further biotransformation in the intestine | ~8 h | – | – | – | – | – | –
Oc1ccc(C2COc3cc(O)ccc3C2)cc1 (racemic) [equol, 7-hydroxy-3(4′hydroxyphenyl)-chroman] | – | – | – | – | Approximately 50% | significant reductions | significant reductions | no alteration | significantly increased | significant reduction
